Assay results as given in patent US20240254115A1 (ACONDICIONAMIENTO TARRASENSE, priority 2021, published 2024).

Assays:
human σ1 receptor = molecular target: T1, human σ1 receptor (Homo sapiens, UniProt Q99720); assay: Human σ1 receptor radioligand assay; conditions: transfected HEK-293 membranes, 5 nM [3H](+)-pentazocine, 37° C. 120 minutes; + may also stand for 1-50% inhibition at 1 or 10 μM; read-out: Binding σ-1 Ki
T1 construct: expressed in transfected cells; host or cells: HEK-293
In short: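 Membranes (7 μg) were incubated with 5 nM [3H](+)-pentazocine in 50 mM Tris-HCl pH 8 for 120 min at 37° C. Non-specific binding was defined with 10 μM haloperidol. Values are % inhibition at 1 or 10 μM or Ki from five concentrations, read by filtration and scintillation counting.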

human σ2/TMEM97 receptor = molecular target: T2, human σ2/TMEM97 receptor (Homo sapiens, UniProt Q5BJF2); assay: Binding assay to human σ2/TMEM97 receptor; conditions: transfected HEK-293 membranes, 10 nM [3H]-DTG, 25° C. 120 minutes; + may also stand for 1-50% inhibition at 1 or 10 μM; read-out: Binding σ-2 Ki
T2 construct: expressed in transfected cells; host or cells: HEK-293
T2 sequence (Q5BJF2 whole entry): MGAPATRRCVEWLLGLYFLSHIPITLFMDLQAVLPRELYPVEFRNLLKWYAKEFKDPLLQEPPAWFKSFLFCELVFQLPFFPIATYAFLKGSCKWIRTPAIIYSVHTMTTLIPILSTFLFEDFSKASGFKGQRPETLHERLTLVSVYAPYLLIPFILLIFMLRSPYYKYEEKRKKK
In short: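 Membranes from transfected HEK-293 cells (15 µg) were incubated with 10 nM [3H]-DTG in 50 mM Tris-HCl pH 8.0 for 120 min at 25 °C, with 10 µM haloperidol defining non-specific binding. Filtration and scintillation counting followed. Compounds tested as % inhibition at 1 or 10 µM, or at five concentrations for Ki.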

T1 sequence (Q99720 whole entry): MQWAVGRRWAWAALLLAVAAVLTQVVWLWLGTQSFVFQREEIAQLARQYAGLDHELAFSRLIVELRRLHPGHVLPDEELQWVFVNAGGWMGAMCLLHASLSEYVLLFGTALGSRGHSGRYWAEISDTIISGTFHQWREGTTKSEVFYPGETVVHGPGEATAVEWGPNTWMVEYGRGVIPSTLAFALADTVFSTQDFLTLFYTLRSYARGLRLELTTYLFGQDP

| Ki (human σ1 receptor) [µM] | Ki (human σ2/TMEM97 receptor) [µM] | SMILES |
| --- | --- | --- |
| < 0.1 | > 1 | CN(C)c1ccc(S(=O)(=O)N[C@@H]2CCN(Cc3ccccc3)C2)cn1 [Example 22, (R)-N-(1-Benzylpyrrolidin-3-yl)-6-(dimethylamino) pyridine-3-sulfonamide] |
| > 1 | 0.1 to 0.5 | N#Cc1cc(CN[C@H]2CC[C@H](NS(=O)(=O)c3ccc(N4CCOCC4)nc3)CC2)ccc1F [Example 52, N-((1r,4r)-4-((3-Cyano-4-fluorobenzyl)amino)cyclohexyl)-6-morpholinopyridine-3-sulfonamide] |
| 0.1 to 0.5 | < 0.1 | CC(C)(C)CCN1CCC2(CC1)CCN(S(=O)(=O)c1ccc(N3CCCCC3=O)nc1)CC2 [Example 132, 1-(5-((9-(3,3-Dimethylbutyl)-3,9-diazaspiro[5.5]undecan-3-yl)sulfonyl)pyridin-2-yl)piperidin-2-one] |
| 0.1 to 0.5 | < 0.1 | CC(=O)Nc1ccc(S(=O)(=O)N2CCCC3(CCN(CCC(C)(C)C)CC3)C2)cn1 [Example 107, N-(5-((9-(3,3-Dimethylbutyl)-2,9-diazaspiro[5.5]undecan-2-yl)sulfonyl)pyridin-2-yl)acetamide] |
| > 1 | < 0.1 | CN(Cc1ccccc1)C1CCN(S(=O)(=O)c2ccc(N3CCC4(CCCO4)CC3)nc2)CC1 [Example 87, 1-((6-(1-Oxa-8-azaspiro[4.5]decan-8-yl)pyridin-3-yl)sulfonyl)-N-benzyl-N-methylpiperidin-4-amine] |
| < 0.1 | < 0.1 | O=C1CCCN1c1ccc(S(=O)(=O)N2CCCC3(CCN(CC4CCOCC4)CC3)C2)cn1 [Example 126, 1-(5-((9-((Tetrahydro-2H-pyran-4-yl)methyl)-2,9-diazaspiro[5.5]undecan-2-yl)sulfonyl)pyridin-2-yl)pyrrolidin-2-one] |
| 0.1 to 0.5 | 0.1 to 0.5 | O=C1OCCN1c1ccc(S(=O)(=O)N2CCC3(CCN(Cc4ccccc4F)CC3)C2)cn1 [Example 163, 3-(5-((8-(2-Fluorobenzyl)-2,8-diazaspiro[4.5]decan-2-yl)sulfonyl)pyridin-2-yl)oxazolidin-2-one] |
| > 1 | 0.1 to 0.5 | CN(Cc1ccncc1)[C@H]1CC[C@H](NS(=O)(=O)c2ccc(N3CCOCC3)nc2)CC1 [Example 60, N-((1r,4r)-4-(Methyl(pyridin-4-ylmethyl)amino)cyclohexyl)-6-morpholinopyridine-3-sulfonamide] |
| < 0.1 | < 0.1 | CC(C)(C)CCN1CCCC2(CCN(S(=O)(=O)c3ccc(N4CCOCC4)nc3)CC2)C1 [Example 75, 4-(5-((2-(3,3-Dimethylbutyl)-2,9-diazaspiro[5.5]undecan-9-yl)sulfonyl)pyridin-2-yl)morpholine] |
| 0.1 to 0.5 | 0.1 to 0.5 | CN(CC1CCOCC1)C1CCN(S(=O)(=O)c2ccc(N3CCOC3=O)nc2)CC1 [Example 129, 3-(5-((4-(Methyl((tetrahydro-2H-pyran-4-yl)methyl)amino)piperidin-1-yl)sulfonyl)pyridin-2-yl)oxazolidin-2-one] |
| < 0.1 | < 0.1 | CC(C)(C)CCN1CCC2(CC1)CCN(S(=O)(=O)c1ccc(-c3ccncc3)nc1)C2 [Example 114, 2-([2,4′-Bipyridin]-5-ylsulfonyl)-8-(3,3-dimethylbutyl)-2,8-diazaspiro[4.5]decane] |

More lines, now with the values behind:

| SMILES | Ki (human σ1 receptor) [µM] | Ki (human σ2/TMEM97 receptor) [µM] |
| --- | --- | --- |
| CN(Cc1ccc(F)c(F)c1)[C@H]1CC[C@H](NS(=O)(=O)c2ccc(N3CCC4(CCOC4)CC3)nc2)CC1 [Example 180, N-((1r,4r)-4-((3,4-Difluoro-benzyl)(methyl)amino)cyclohexyl)-6-(2-oxa-8-azaspiro[4.5]decan-8-yl)pyridine-3-sulfonamide] | > 1 | < 0.1 |
| CC(C)OCCN1CCC2(CC1)CCN(S(=O)(=O)c1ccc(C(F)(F)F)nc1)CC2 [Example 90, 3-(2-Isopropoxyethyl)-9-((6-(trifluoromethyl)pyridin-3-yl)sulfonyl)-3,9-diazaspiro[5.5]undecane] | 0.1 to 0.5 | < 0.1 |
| COc1ccc(CNC[C@@H]2CCCN(S(=O)(=O)c3ccc(N4CCOCC4)nc3)C2)cn1 [Example 34, (S)-1-(6-Methoxypyridin-3-yl)-N-((1-((6-morpholinopyridin-3-yl)sulfonyl)piperidin-3-yl)methyl) methanamine] | 0.5 to 1 | < 0.1 |
| CN(Cc1ccccc1F)[C@H]1CC[C@H](NS(=O)(=O)c2ccc(N3CCC4(CCCO4)CC3)nc2)CC1 [Example 178, N-((1r,4r)-4-((2-Fluorobenz-yl)(methyl)amino)cyclohexyl)-6-(1-oxa-8-azaspiro[4.5]decan-8-yl)pyridine-3-sulfonamide] | > 1 | < 0.1 |
| CC(C)(C)CCN1CCC2(CC1)CCN(S(=O)(=O)c1ccc(N3CCC4(CCCO4)CC3)nc1)C2 [Example 81, 8-(5-((8-(3,3-Dimethylbutyl)-2,8-diazaspiro[4.5]decan-2-yl)sulfonyl)pyridin-2-yl)-1-oxa-8-azaspiro[4.5]decane] | < 0.1 | < 0.1 |
| CC(C)N([C@H]1CCN(Cc2ccc(C#N)cc2)C1)S(=O)(=O)c1ccc(N2CCOCC2)nc1 [Example 50, (S)-N-(1-(4-Cyanobenzyl)pyrrolidin-3-yl)-N-isopropyl-6-morpholinopyridine-3-sulfonamide] | 0.5 to 1 | > 1 |
| CC(C)(C)CCN1CCC2(CC1)CCN(S(=O)(=O)c1cnc(N3CCCC3=O)c(F)c1)CC2 [Example 141, 1-(5-((9-(3,3-Dimethylbutyl)-3,9-diazaspiro[5.5]undecan-3-yl)sulfonyl)-3-fluoropyridin-2-yl)pyrrolidin-2-one] | 0.1 to 0.5 | < 0.1 |
| CN(Cc1ccccc1)C1CCN(S(=O)(=O)c2ccc(N3CCC(F)(F)CC3)nc2)CC1 [Example 86, N-Benzyl-1-((6-(4,4-difluoropiperidin-1-yl)pyridin-3-yl)sulfonyl)-N-methylpiperidin-4-amine] | < 0.1 | < 0.1 |
| CC(C)(C)CCN1CCC2(CC1)CCN(S(=O)(=O)c1ccc(C3CCOCC3)nc1)CC2 [Example 117, 3-(3,3-Dimethylbutyl)-9-((6-(tetrahydro-2H-pyran-4-yl)pyridin-3-yl)sulfonyl)-3,9-diazaspiro[5.5]undecane] | 0.1 to 0.5 | < 0.1 |
| O=C1OCCN1c1ccc(S(=O)(=O)N2CCC3(CCN(Cc4ccccc4F)CC3)CC2)cn1 [Example 166, 3-(5-((9-(2-Fluorobenzyl)-3,9-diazaspiro[5.5]undecan-3-yl)sulfonyl)pyridin-2-yl)oxazolidin-2-one] | 0.5 to 1 | < 0.1 |
| O=S(=O)(NC1CC2(CCN(Cc3ccccc3)CC2)C1)c1ccc(N2CCOCC2)nc1 [Example 46, N-(7-Benzyl-7-azaspiro[3.5]nonan-2-yl)-6-morpholinopyridine-3-sulfonamide] | > 1 | 0.1 to 0.5 |
| O=S(=O)(c1ccc(N2CCC(F)(F)CC2)nc1)N1CCC2(CCN(Cc3ccccc3)CC2)C1 [Example 82, 8-Benzyl-2-((6-(4,4-difluoropiperidin-1-yl)pyridin-3-yl)sulfonyl)-2,8-diazaspiro[4.5]decane] | < 0.1 | < 0.1 |
| CC(C)(C)CCN1CCC2(CC1)CCN(S(=O)(=O)c1ccc(-c3ccncc3)nc1)CC2 [Example 113, 3-([2,4′-Bipyridin]-5-ylsulfonyl)-9-(3,3-dimethylbutyl)-3,9-diazaspiro[5.5]undecane] | 0.1 to 0.5 | < 0.1 |
